# Measurements: US7781565B2 (priority 2006, dated 2010)
# “Also recorded” adds a separate entry of the source.
# Tested on: NCI-60 cell lines
# Type: cell-based, human
Substance,Cell Line (NCI-60 cell line the peptide and its motif are associated with),Cell Line (NCI-60 cell line the peptide is associated with),Cell Line with which the peptide (and its tripeptide motif) is associated,Cell Line the peptide is associated with (peptide recovered from phage library selection on this NCI-60 cell line)
RHGPGVL,OVCAR-3 Ovarian,–,–,–
RHGVRSK,–,SF-295 CNS,–,–
RIDAGGG,–,SW620-Colon,–,–
RIFHGAV,–,SNB-19 CNS; also recorded: SF-539 CNS,–,–
RIGAGHR,PC3 Prostate,–,–,–
RIGAVWY,–,HT-29 Colon,–,–
RIGRVWA,–,–,Molt-4-Leukemia,–
RKEALRV,–,–,–,CAIK-1 Renal
RKGSGTA,–,–,–,BT-549 Breast
RKPGGGR,–,HT-29 Colon,–,–
RLAVSGY,–,–,H522-Lung,–
RLETLLS,–,–,–,UO31 Renal
RLGSSGL,–,–,–,RXF393 Renal
RLHYLRS,M14 Melanoma,–,–,–
RLLSAFG,–,HCT-15 Colon,–,–
RLLSEGY,–,SNB-75 CNS,–,–
RLRAASY,–,–,RPMI-8226-Leukemia,–
RLRLSSW,–,–,–,TK-10 Renal
RLRSYVA,786-0 Renal,–,–,–
RLRVSVR,–,–,–,CAIK-1 Renal
RLSALTD,–,HT-29 Colon,–,–
RLSGAGD,OVCAR-5 Ovarian,–,–,–

Substance,Cell Line (NCI-60 cell line the peptide and its motif are associated with),Cell Line (NCI-60 cell line the peptide is associated with),Cell Line with which the peptide (and its tripeptide motif) is associated,Cell Line the peptide is associated with (peptide recovered from phage library selection on this NCI-60 cell line)
RLSMASR,–,–,–,ACHN Renal
RLSSAPS,M14 Melanoma,–,–,–
RLSTFAG,–,SNB-19 CNS; also recorded: SF-539 CNS,–,–
RLSWTVL,PC3 Prostate,–,–,–
RLWGSVV,SK-OV-3-3 Ovarian,–,–,–
RMGFGLR,–,LOX-IMVI Melanoma,–,–
RMGLLRQ,M14 Melanoma,–,–,–
RMLVSSF,UACC 257 Melanoma,–,–,–
RNPGRLA,–,HT-29 Colon,–,–
RNSRAGL,–,–,–,UO31 Renal
RPAGGRT,PC3 Prostate,–,–,–
RPARGAF,–,–,–,ACHN Renal
RPKLRSV,–,MALME-3M Melanoma,–,–
RPWGAVA,SK-OV-3-3 Ovarian,–,–,–
RQDGGLY,PC3 Prostate,–,–,–
RQKCGGL,–,HT-29 Colon,–,–
RQLVSPA,–,HT-29 Colon,–,–
RQTTGAV,–,–,K-562-Leukemia,–
RRAGGSV,OVCAR-5 Ovarian,–,–,–
RRARGAC,–,SNB-75 CNS,–,–
RRDAGRM,–,SF-295 CNS,–,–
RRDGLVE,786-0 Renal,–,–,–

Substance,Cell Line (NCI-60 cell line the peptide and its motif are associated with),Cell Line (NCI-60 cell line the peptide is associated with),Cell Line with which the peptide (and its tripeptide motif) is associated,Cell Line the peptide is associated with (peptide recovered from phage library selection on this NCI-60 cell line)
RREGLRS,OVCAR-3 Ovarian,–,H522-Lung,–
RRFWAGL,–,–,H460-Lung,–
RRGLGDA,–,–,–,TK-10 Renal
RRGSGGL,–,–,H23-Lung,–
RRGSLMF,–,SW620-Colon,–,–
RRGSSRN,–,–,SR Leukemia,–
RRGSVAE,–,–,–,HS 578 T Breast
RRHGLLS,–,–,K-562-Leukemia,–
RRLSSIA,–,–,–,TK-10 Renal
RRLSYFH,–,HT-29 Colon,–,–
RRLSYHS,M14 Melanoma; also recorded: OVCAR-3 Ovarian,–,–,–
RRLSYRD,–,–,RPMI-8226-Leukemia,–
RRLSYRE,OVCAR-8 Ovarian,–,–,–
RRPGLRS,–,HT-29 Colon,–,–
RRSGAGG,–,–,–,UO31 Renal
RRSGLGD,–,HCC-2998-Colon,–,–
RRSSKQA,–,–,A549-Lung,–
RRVSCDL,–,–,Hop-62-Lung,–
RRVSLVA,–,–,CCRF-CEM Leukemia,–
RSGRVSN,SK-OV-3-3 Ovarian,–,–,–
RSGSSVY,–,–,H23-Lung,–
RSLGSVG,DU-145 Prostate,–,–,–

Substance,Cell Line (NCI-60 cell line the peptide and its motif are associated with),Cell Line (NCI-60 cell line the peptide is associated with),Cell Line with which the peptide (and its tripeptide motif) is associated,Cell Line the peptide is associated with (peptide recovered from phage library selection on this NCI-60 cell line)
RSSGLGF,–,–,Hop-62-Lung,–
RSSIAPS,–,–,Molt-4-Leukemia,–
RSSIDVG,–,–,–,NCI/ADR-RES Breast
RSSLGLP,–,–,H226-Lung,–
RSSPVWT,–,SW620-Colon,–,–
RSSSGSG,–,–,–,TK-10 Renal
RSSSSTR,–,SNB-75 CNS,–,–
RSSYAPP,–,–,–,ACHN Renal
RSTLGPS,–,HT-29 Colon,–,–
RSWNAGR,–,–,–,UO31 Renal
RSYPLRS,–,SW620-Colon,–,–
RTGSSDL,–,–,Hop-92-Lung,–
RTWGGRM,M14 Melanoma,–,–,–
RVAAGGL,–,–,–,T-47D Breast
RVARGDR,–,KM-12C Colon,–,–
RVDRGSL,–,–,–,CAIK-1 Renal
RVEAAVP,SK-OV-3-3 Ovarian,–,–,–
RVGAGAF,SK-OV-3-3 Ovarian,–,–,–
RVGAGWP,–,–,–,BT-549 Breast
RVGRGVL,–,SF-268 CNS,–,–
RVGRLGG,–,–,A549-Lung,–
RVGSVQW,–,KM-12C Colon,–,–

Substance,Cell Line (NCI-60 cell line the peptide and its motif are associated with),Cell Line (NCI-60 cell line the peptide is associated with),Cell Line with which the peptide (and its tripeptide motif) is associated,Cell Line the peptide is associated with (peptide recovered from phage library selection on this NCI-60 cell line)
RVGTLRV,SK-OV-3-3 Ovarian,–,–,–
RVMRGSL,–,–,–,MCF-7 Breast
RVPTGVR,–,–,–,SN12C Renal
RVRAVLG,SK-MEL-28 Melanoma,–,–,–
RVRGVLD,–,–,–,BT-549 Breast
RVRSSLA,–,–,–,HS 578 T Breast
RVSGDGK,SK-OV-3-3 Ovarian,–,–,–
RVSGSPV,–,–,–,NCI/ADR-RES Breast
RVSNEAL,SK-OV-3-3 Ovarian,–,–,–
RVSRAGG,PC3 Prostate,–,–,–
RVSSDPI,SK-OV-3-3 Ovarian,–,–,–
RVSSETF,A498 Renal,–,–,–
RVVGAVL,–,–,–,ACHN Renal
RWAGLVA,–,SF-295 CNS,–,–
RWLSLLS,–,MALME-3M Melanoma,–,–
RWRSGRV,–,HT-29 Colon,–,–
RYGTAGS,–,–,–,SN12C Renal
RYGVGGL,–,HT-29 Colon,–,–
RYRVSVY,–,KM-12C Colon,–,–
RYSMASL,SK-MEL-5 Melanoma,–,–,–
RYSTLLR,–,–,K-562-Leukemia,–
SAAGLAR,SK-OV-3-3 Ovarian,–,–,–

Substance,Cell Line (NCI-60 cell line the peptide and its motif are associated with),Cell Line (NCI-60 cell line the peptide is associated with),Cell Line with which the peptide (and its tripeptide motif) is associated,Cell Line the peptide is associated with (peptide recovered from phage library selection on this NCI-60 cell line)
SAAGRTF,SK-MEL-2 Melanoma,–,–,–
SAGGWCA,–,LOX-IMVI Melanoma,–,–
SAGLLPS,OVCAR-5 Ovarian,–,–,–
SAGSHPA,–,–,–,SN12C Renal
SAGVSDS,SK-MEL-2 Melanoma,–,–,–
SALRVGL,–,–,–,BT-549 Breast
SARLSHV,UACC 257 Melanoma,–,–,–
SARQGGR,M14 Melanoma,–,–,–
SAVSESP,SK-OV-3-3 Ovarian,–,–,–
SDENGRL,–,–,HL-60-Leukemia,–
SDLGLRR,DU-145 Prostate,–,–,–
SDRGLVV,–,HCT-15 Colon,–,–
SDVSGSS,–,–,H322-Lung,–
SEDEGAG,–,–,H322-Lung,–
SELRSIR,–,COLO-205-Colon,–,–
SEQRGGL,–,–,–,ACHN Renal
SERSSLG,–,–,Hop-92-Lung,–
SFAGRIL,–,–,–,T-47D Breast
SFGVLSG,–,–,–,HS 578 T Breast
SFWWLRS,–,–,–,TK-10 Renal
SGAGAAF,786-0 Renal,–,–,–
SGAGSVS,OVCAR-5 Ovarian,–,–,–
